Assay [1] concerns α-SMA mRNA in NRK-49F cells. The assay can be described thus: TGF-β1 induced α-SMA mRNA expression in NRK-49F cells (qRT-PCR). Type of assay: cell-based, rat. Particulars: 5 μM, 10 ng/ml TGF-β1 for 24 h. As to the method:
NRK-49F (normal rat kidney fibroblasts, ATCC® CRL-1570™) were maintained in DMEM with 4500 mg/L glucose, 5% FBS, L-glutamine, and gentamicin. For experiments, 3×10^5 cells/well were seeded in 6-well plates. After three days, post-confluent cells were serum starved for 24 h. They were then pre-incubated with inhibitors for 90 min, before they were treated with 10 ng/ml TGF-β1 for 24 h (mRNA-expression).
(§1) Total RNA was isolated using the RNeasy Mini Kit (Qiagen). cDNA synthesis was performed with 1 μg total RNA in 20 μl reaction of QuantiTect Reverse Transcription Kit (Qiagen). After synthesis, cDNA was diluted 1:6 with RNase-free water. qRT-PCR was performed with LightCycler 480 SYBR Green I Master (Roche), and the qRT-PCR analyses were carried out using the Lightcycler 96 system (Roche).

Assay [2] deals with α-SMA mRNA in RMC (rat mesangial cells). The assay can be described thus: TGF-β1 induced α-SMA mRNA expression in RMC mesangial cell line (qRT-PCR). Type of assay: cell-based. Particulars: 5 ng/ml TGF-β1 for 24 h, not significant. As to the method: (§2) RMC (rat mesangial cells, ATCC® CRL-2573™) were maintained in DMEM with 4500 mg/L glucose (Sigma), 15% FBS, L-glutamine, and 0.4 mg/ml G418. For experiments, 3×10^5 cells/well were seeded in 6-well plates. After five days, post-confluent cells were serum starved for 24 h. They were then pre-incubated with inhibitors for 90 min, before they were treated with 5 ng/ml TGF-β1 for 24 h.
as §1

Assay [3] deals with Ptgs2 mRNA in MRC-5 cells. The assay can be described thus: TGF-β1 induced Ptgs2 mRNA expression in MRC-5 cells (qRT-PCR). In kind it is cell-based, human. Particulars: 5 μM, 2 ng/ml TGF-β1 for 24 h. As for the experimental part:
MRC-5 (human lung fibroblast, ATCC® CCL-171™) were maintained in MEM with 10% FBS, L-glutamine, and gentamicin. For experiments, 1×10^5 cells/well were seeded in 6-well plates. After two days, pre-confluent cells were serum starved for 24 h. They were then pre-incubated with inhibitors for 90 min, before they were treated with 2 ng/ml TGF-β1 for 24 h.
as §1

Assay [4] relates to Ptgs2 mRNA in RMC (rat mesangial cells). The assay can be described thus: TGF-β1 induced Ptgs2 mRNA expression in RMC (qRT-PCR). In kind it is cell-based. The note with it: 5 μM, 5 ng/ml TGF-β1 for 24 h. As for the experimental part:
as §2, §1

The subject of assay [5] is PGE2 production in human PBMC. The assay can be described thus: LPS-induced PGE2 production in human PBMC (EIA). In kind it is cell-based. The note with it: LPS 10 ng/mL, 72 hrs. As to the method: Blood was recruited from healthy donors at St. Olavs Hospital HF, the Bloodbank (project approved by Regional Ethical Committee of Mid-Norway; #2016/553). Peripheral blood mononuclear cells (PBMC) were isolated using SepMate™ separation tubes with LymphoPrep density gradient medium according to the STEMCELL Technology recommendations. For experiments, 1×10^6 cells/well/1 mL RPMI medium supplemented with 5% FBS, 0.3 mg/ml glutamine and 0.1 mg/ml gentamicin with- or without inhibitor. Treatments were added 2 hours prior to the addition of lipopolysaccharides as a potent inducer of inflammation (LPS from E. coli 026:B6 γ-irradiated, Sigma-Aldrich, #L2654). Following treatment (72 hrs., 37° C., 5% CO2), the cell suspensions were centrifuged to isolate the supernatant from the cell fraction. Samples were stored at −80° C. until analysis.
PBMC supernatants were analyzed by enzyme-linked immunosorbent assay (EIA) for PGE2 (Cayman #514010), according to the manufacturers protocols. PBMC supernatants were assayed at dilutions of 1:100, except supernatants from non-LPS treated PBMC that were assayed undiluted in all assays. Supernatants were hybridized over-night incubation, enzymatic conversion of substrate were read at OD420 nm. Data were processed using a 4-parameter logistic fit model.

Assay [6] deals with PGE2 in rat renal mesangial cells. The assay can be described thus: IL-1 induced PGE2 in rat renal mesangial cells (EIA). In kind it is cell-based. The note with it: Mesangial cell, IL-1 stimulation. As for the experimental part: Cell culture of rat renal mesangial cells were isolated, characterized and cultured as previously described (Pfeilschifter eteil., e1984).84ERLINK “htmesangial cells in 24-well plates were pretreated for 90library.wiley.com/doi/full/10.1111/Compound A before stimulation in a volume of 0.5 mL with IL-1eforenM, Cell Concept GmbH) to induce PGE2Hn in a volume of 0.5 mL with ILcom/doi/full^0C, 5% CO2), the cell suspensions were centrifuged to isolate the supernatant from the cell fraction. Samples were stored at −80° C. until analysis.
Rat mesangial cell supernatants were analyzed by EIA for PGE2 (Assay Designs, BIOTREND Chemikalien GmbH), according to the manufacturers protocols. Data were calculated as pg of PGE2 per 1.3×10^5 cells which was the cell number per well.

[7] abbreviates: read-out: estimated IC50 of PGE2 inhibition.

We go through one compound from patent US20210361628A1, “2-OXOTHIAZOLE COMPOSITIONS FOR TREATMENT OF FIBROTIC DISEASE” (Avexxin AS, priority 2018, published 2021).

As for `CCCCCCCOc1ccc(OCC(=O)c2nc(C(=O)OC)cs2)cc1` [Compound A], the “inhibition of TGF-β1 induced expression of α-SMA mRNA” value in assay [1] is listed as 50%. Also, in assay [2], the “reduction of α-SMA mRNA expression” value is listed as “around 35%”. Besides, the Ptgs2 expression result in assay [3] was “reduced Ptgs2 expression”. Moreover, in assay [4], the “Ptgs2 mRNA levels” value was “seem to reduce Ptgs2 mRNA levels”. This compound also had a PGE2 production in assay [5] (10 μM (highest dose), LPS alone 18185+/−11200 pg/mL) of 510 ± 406 pg/mL. The IC50 in assay [5] (setting [7]) is 440 nM; in assay [6] (setting [7]), 900 nM. Besides, in assay [6] (10 μM), at 10 µM the inhibition was 65%.
